Laboratory results from patent US20210246115A1 (Bioimics AB, priority 2017, published 2021).
Counter-ions that a name gives are not always drawn.

How the values were obtained:
[1] = system: E. coli RNase P RNA, M1 RNA; experiment: Inhibition of bacterial RNase P activity, IC50 determination (cleavage of pATSerUG by M1 RNA); type: biochemical; details: NI: No inhibition
[2] = system: Escherichia coli (ATCC25922); experiment: MIC, broth microdilution (CLSI), Escherichia coli; details: Escherichia coli, ATCC25922, read-out: E. coli ATCC 25922 MIC, Table XIII
[3] = system: Staphylococcus aureus (ATCC25923); experiment: MIC, broth microdilution (CLSI), Staphylococcus aureus ATCC25923; details: Staphylococcus aureus, ATCC25923, read-out: S. aureus ATCC 25923 MIC

Row | Structure (SMILES) | IC50 [1] [µM] | MIC [2] [µg/mL] | MIC [3] [µg/mL] | IC50 ([1]; hydrochloride salt) [µM]
1 | Cc1cccc(C(CCN(C)C2CCNCC2)c2cn(CC3CCCCC3)c3ccc(Br)cc23)c1 (stereo not drawn) [Compound 291, N-(3-(5-bromo-1-(cyclohexylmethyl)-1H-indol-3-yl)-3-(m-tolyl)propyl)-N-methylpiperidin-4-amine hydrochloride salt] | 10 | 10 | 2 | 
2 | Cc1cccc(C(CC(=O)N[C@H]2CC[C@H](N)CC2)c2cn(CCC3CCCCC3)c3ccccc23)c1.Cl (stereo partly drawn) [Compound 113, N-((1R,4R)-4-aminocyclohexyl)-3-(1-(2-cyclohexylethyl)-1H-indol-3-yl)-3-(m-tolyl)propanamide hydrochloride salt] | 14 | 512 | 32 | 
3 | Cc1cccc(C(CC(=O)N[C@H]2CC[C@H](N)CC2)c2cn(Cc3ccccc3)c3ccccc23)c1.Cl (stereo partly drawn) [Compound 64, N-((1R,4R)-4-aminocyclohexyl)-3-(1-benzyl-1H-indol-3-yl)-3-(m-tolyl)propanamide salt] | 58 | > 512 | 64 | 
4 | Cc1cccc(C(CC(=O)NC2CCC(N)CC2)c2cn(CC3CCCCCC3)c3ccccc23)c1.Cl [Compound 238, N-((1S,4S)-4-aminocyclohexyl)-3-(1-(cycloheptylmethyl)-1H-indol-3-yl)-3-(m-tolyl)propanamide hydrochloride salt] | 9.2 | > 512 | 4 | 
5 | Cc1cccc(C(CC(=O)NC2CCNCC2)c2cn(CC3CC3)c3ccccc23)c1.Cl (stereo not drawn) [Compound 123, 3-(1-(cyclopropylmethyl)-1H-indol-3-yl)-N-(piperidin-4-yl)-3-(m-tolyl)propanamide hydrochloride salt] | 389 | 256 | 64 | 
6 | Cc1cccc(C(CC(=O)NC2CCC(N)CC2)c2cn(CC3CCCCC3)c3ccc(-c4ccncc4)cc23)c1 (stereo not drawn) [Compound 188, N-(4-aminocyclohexyl)-3-(1-(cyclohexylmethyl)-5-(pyridin-4-yl)-1H-indol-3-yl)-3-(m-tolyl) propanamide hydrochloride salt] | 5.8 | > 512 | 5 | 
7 | Cc1cccc(C(CC(=O)N[C@H]2CC[C@H](N)CC2)c2cn(CC3CCCCC3)c3ccc(F)cc23)c1.Cl (stereo partly drawn) [Compound 125, N-((1R,4R)-4-aminocyclohexyl)-3-(1-(cyclohexylmethyl)-5-fluoro-1H-indol-3-yl)-3-(m-tolyl)propanamide hydrochloride salt] | 29 | 256 | 8 | 
8 | Cc1cccc(C(CC(=O)N[C@H]2CCCC[C@@H]2N)c2cn(CC3CCCCC3)c3ccccc23)c1.Cl (stereo partly drawn) [Compound 189, N-((1S,2S)-2-aminocyclohexyl)-3-(1-(cyclohexylmethyl)-1H-indol-3-yl)-3-(m-tolyl)propanamide hydrochloride salt] | 16 | > 512 | 16 | 
9 | N[C@H]1CC[C@H](NC2CCC(c3cn(CC4CCCCC4)c4ccc(Br)cc34)CC2)CC1 (single isomer, unassigned) [Compound 265, (1r,4r)-N1-(4-(5-bromo-1-(cyclohexylmethyl)-1H-indol-3-yl)cyclohexyl)cyclohexane-1,4-diamine hydrochloride salt] |  | 2 | 2 | 15
10 | Cc1cccc(C(CC(=O)NC2CCC(N)CC2)c2cn(CC3CCCCC3)c3ccc(-c4ccccc4C)cc23)c1.Cl [Compound 221, N-((1S,4S)-4-aminocyclohexyl)-3-(1 - (cyclohexylmethyl)-5-(o-tolyl)-1H-indol-3-yl)-3-(m-tolyl)propanamide hydrochloride salt] | 3.4 | > 512 | 38 | 
11 | Cc1cccc(C(CC(=O)NC2CCC(N)CC2)c2c(C)n(CC3CCCCC3)c3ccccc23)c1.Cl [Compound 243, N-((1S,4S)-4-aminocyclohexyl)-3-(1-(cyclohexylmethyl)-2-methyl-1H-indol-3-yl)-3-(m-tolyl)propanamide hydrochloride salt] | 35 | > 512 | 17 | 
12 | Cc1cccc(C(CC(=O)NCC2CCC(CN)CC2)c2cn(CC3CCCCC3)c3ccc(Br)cc23)c1.Cl (stereo not drawn) [Compound 203, N-((4-(aminomethyl)cyclohexyl)methyl)-3-(5-bromo-1-(cyclohexylmethyl)-1H-indol-3-yl)-3-(m-tolyl)propanamide hydrochloride salt] | 115 | > 512 | 5 | 
13 | Cc1cc(F)cc(C(CC(=O)NC2CCC(N)CC2)c2cn(CC3CCCCC3)c3ccccc23)c1.Cl [Compound 150, N-((1S,4S)-4-aminocyclohexyl)-3-(1-(cyclohexylmethyl)-1H-indol-3-yl)-3-(3-fluoro-5-methylphenyl) propanamide hydrochloride salt] | 64 | 512 | 8 | 
14 | Cl.N[C@H]1CC[C@H](NC(=O)CCc2cn(CC3CCCCC3)c3ccc(-c4ccccc4OC(F)(F)F)cc23)CC1 [Compound 231, N-((1R,4R)-4-aminocyclohexyl)-3-(1-(cyclohexylmethyl)-5-(2-(trifluoromethoxy)phenyl)-1H-indol-3-yl) propanamide hydrochloride salt] | 4.4 | > 512 | 5 | 

The next lines start with results.

Row | IC50 [1] [µM] | MIC [2] [µg/mL] | MIC [3] [µg/mL] | Structure (SMILES) | IC50 ([1]; hydrochloride salt) [µM]
15 | 16 | 64 | 8 | Cc1cccc(C(CC(=O)N[C@H]2CC[C@H](N)CC2)c2cn(CC3CCCCC3)c3ccccc23)c1.Cl (stereo partly drawn) [Compound 104, N-((1R,4R)-4-aminocyclohexyl)-3-(1-(cyclohexylmethyl)-1H-indol-3-yl)-3-(m-tolyl)propanamide hydrochloride salt] | 
16 | 37 | 32 | 8 | Cc1cccc(C(CC(=O)NC2CCNCC2)c2cn(CC3CCCCC3)c3ccccc23)c1.Cl (stereo not drawn) [Compound 89, 3-(1-(cyclohexylmethyl)-1H-indol-3-yl)-N-(piperidin-4-yl)-3-(m-tolyl)propanamide hydrochloride salt] | 
17 |  | 5 | 5 | Cc1cccc(C(CC(=O)NC2CCC(N)CC2)c2cn(CC3CCCCC3)c3cc(Br)ccc23)c1 [Compound 222, N-((1S,4S)-4-aminocyclohexyl)-3-(6-bromo-1-(cyclohexylmethyl)-1H-indol-3-yl)-3-(m-tolyl)propanamide hydrochloride salt] | 5.7
18 | 20 | 68 | 9 | Cc1cccc(C(CC(=O)NC2CCC(N)CC2)c2cn(CC3CCCCC3)c3ccc(C#N)cc23)c1.Cl [Compound 236, N-((1S,4S)-4-aminocyclohexyl)-3-(5-cyano-1-(cyclohexylmethyl)-1H-indol-3-yl)-3-(m-tolyl)propanamide hydrochloride salt] | 
19 | 10 | 31 | 15 | Cl.N[C@H]1CC[C@H](NC(=O)Cc2cn(CC3CCCCC3)c3ccc(Br)cc23)CC1 [Compound 190, N-((1R,4R)-4-aminocyclohexyl)-2-(5-bromo-1-(cyclohexylmethyl)-1H-indol-3-yl)acetamide hydrochloride salt] | 
20 | 15.4 | 75 | 2 | Cc1cccc(C(CC(=O)NC2CCC(NC(=N)N)CC2)c2cn(CC3CCCCC3)c3ccccc23)c1 (stereo not drawn) [Compound 201, 3-(1-(cyclohexylmethyl)-1H-indol-3-yl)-N-(4-guanidinocyclohexyl)-3-(m-tolyl) propanamide hydrochloride salt] | 
21 | 14 | 64 | 8 | Cc1cccc(C(CC(=O)N[C@H]2CC[C@@H](N)CC2)c2cn(CC3CCCCC3)c3ccccc23)c1.Cl (stereo partly drawn) [Compound 114, N-((1s,4s)-4-aminocyclohexyl)-3-(1-(cyclohexylmethyl)-1H-indol-3-yl)-3-(m-tolyl)propanamide hydrochloride salt] | 
22 | 15 | 18 | 9 | Cc1cccc(C(CCNC[C@H]2CC[C@H](CN)CC2)c2cn(CC3CCCCC3)c3ccccc23)c1 (stereo partly drawn) [Compound 177, N-(((1R,4R)-4-(aminomethyl)cyclohexyl)methyl)-3-(1-(cyclohexylmethyl)-1H-indol-3-yl)-3-(m-tolyl)propan-1-amine hydrochloride salt] | 
23 | 39 | 32 | 8 | Cc1cccc(C(CC(=O)NC2CCNCC2)c2cn(CC3CCCCC3)c3ccc(F)cc23)c1.Cl (stereo not drawn) [Compound 118, 3-(1-(cyclohexylmethyl)-5-fluoro-1H-indol-3-yl)-N-(piperidin-4-yl)-3-(m-tolyl)propanamide hydrochloride salt] | 
24 | 2.9 | 82 | 5 | Cc1cccc(C(CC(=O)NC2CCC(N)CC2)c2cn(CC3CCCCC3)c3ccc(-c4ccccc4Cl)cc23)c1.Cl [Compound 224, N-((1S,4S)-4-aminocyclohexyl)-3-(5-(2-chlorophenyl)-1-(cyclohexylmethyl)-1H-indol-3-yl)-3-(m-tolyl)propanamide hydrochloride salt] | 
25 | 11 | 134 | 17 | Cc1cccc(C(CC(=O)N2CCC(CCN)CC2)c2cn(CC3CCCCC3)c3ccccc23)c1.Cl (stereo not drawn) [Compound 181, 1-(4-(2-aminoethyl)piperidin-1-yl)-3-(1-(cyclohexylmethyl)-1H-indol-3-yl)-3-(m-tolyl)propan-1-one hydrochloride salt] | 
26 | 41 | 64 | 32 | Cc1cccc(C(CC(=O)NC2CCNCC2)c2cn(Cc3ccccc3)c3ccccc23)c1.Cl (stereo not drawn) [Compound 80, 3-(1-benzyl-1H-indol-3-yl)-N-(piperidin-4-yl)-3-(m-tolyl)propanamide hydrochloride salt] | 
27 | 12 | 5 | 2 | NC1CCC(NCCC(c2cc(Cl)cc(Cl)c2)c2cn(CC3CCCCC3)c3ccccc23)CC1 [Compound 171, (1S,4S)-N1-(3-(1-(cyclohexylmethyl)-1H-indol-3-yl)-3-(3,5-dichlorophenyl)propyl) cyclohexane-1,4-diamine hydrochloride salt] | 
